Reference: ChEMBL document CHEMBL1201862, “PubChem BioAssay data set” (2004)
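Step 1: Grow cells in 96-well plates. Step 2: Expose to compound for 48 hours at 5 concentrations. Step 3: Interpolate endpoints linearly; if unreached, use highest concentration. Here, GI50 denotes the concentration required for 50% inhibition of growth.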 Calls of active or inactive are those of the source. Cut-off read from the data, not from the text of the source: active = GI50 up to about 1.1 µM and inactive = higher.

Assays:
Assay in all cases: NCI tumour cell line growth inhibition, 48 h
786-0 = test system: 786-0
A498 = test system: A498
A549 = test system: A549
ACHN = test system: ACHN
CAKI-1 = test system: CAKI-1
CCRF-CEM = test system: CCRF-CEM
COLO 205 = test system: COLO 205
DLD-1 = test system: DLD-1
DMS-114 = test system: DMS-114
DMS-273 = test system: DMS-273
EKVX = test system: EKVX
HCC 2998 = test system: HCC 2998
HCT-15 = test system: HCT-15
HL-60 = test system: HL-60
HOP-18 = test system: HOP-18
HOP-62 = test system: HOP-62
HOP-92 = test system: HOP-92
HT-29 = test system: HT-29
IGROV-1 = test system: IGROV-1
K562 = test system: K562
KM-20L2 = test system: KM-20L2
KM12 = test system: KM12
LOX IMVI = test system: LOX IMVI
M19-MEL = test system: M19-MEL
MOLT-4 = test system: MOLT-4
Malme-3M = test system: Malme-3M
NCI-H226 = test system: NCI-H226
NCI-H23 = test system: NCI-H23
NCI-H460 = test system: NCI-H460
NCI-H522 = test system: NCI-H522
OVCAR-3 = test system: OVCAR-3
OVCAR-5 = test system: OVCAR-5
OVCAR-8 = test system: OVCAR-8
RPMI-8226 = test system: RPMI-8226
RXF 393 = test system: RXF 393
RXF 631 = test system: RXF 631
SF-268 = test system: SF-268
SF-295 = test system: SF-295
SF-539 = test system: SF-539
SK-MEL-28 = test system: SK-MEL-28
SK-MEL-2 = test system: SK-MEL-2
SK-MEL-5 = test system: SK-MEL-5
SK-OV-3 = test system: SK-OV-3
SN12C = test system: SN12C
SNB-75 = test system: SNB-75
SNB-78 = test system: SNB-78
SW-620 = test system: SW-620
TK-10 = test system: TK-10
U-251 = test system: U-251
UACC-257 = test system: UACC-257
UACC-62 = test system: UACC-62
UO-31 = test system: UO-31

Measured: GI50

Cc1nc(C(N)=S)sc1C(=O)/C=C/c1cccc(O)c1
inactive: 786-0 > 100 µM | A498 > 100 µM | A549 > 100 µM | ACHN 56.6 µM | CAKI-1 > 100 µM | CCRF-CEM 28.4 µM | COLO 205 > 100 µM | DLD-1 > 100 µM | DMS-114 68.1 µM | DMS-273 > 100 µM | EKVX > 100 µM | HCC 2998 > 100 µM | HL-60 36.1 µM | HOP-18 > 100 µM | HOP-62 > 100 µM | HOP-92 60.4 µM | HT-29 > 100 µM | IGROV-1 > 100 µM | K562 29.9 µM | KM-20L2 > 100 µM | KM12 32.4 µM | LOX IMVI 45.2 µM | M19-MEL > 100 µM | MOLT-4 21.9 µM | Malme-3M > 100 µM | NCI-H226 > 100 µM | NCI-H23 > 100 µM | NCI-H460 > 100 µM | NCI-H522 90.4 µM | OVCAR-3 > 100 µM | OVCAR-5 > 100 µM | OVCAR-8 > 100 µM | RPMI-8226 25.9 µM | RXF 393 > 100 µM | RXF 631 > 100 µM | SF-268 87.3 µM | SF-295 > 100 µM | SF-539 > 100 µM | SK-MEL-28 > 100 µM | SK-MEL-2 > 100 µM | SK-MEL-5 > 100 µM | SK-OV-3 > 100 µM | SN12C > 100 µM | SNB-75 59.6 µM | SNB-78 > 100 µM | SW-620 82.8 µM | TK-10 > 100 µM | U-251 > 100 µM | UACC-257 > 100 µM | UACC-62 > 100 µM | UO-31 > 100 µM
> 100 µM: HCT-15
